# Measured values reported in patent publication US12492188B2, “1H-benzo[D]imidazole derivatives as TLR9 inhibitors for the treatment of fibrosis” (BRISTOL-MYERS SQUIBB COMPANY, priority 2020, dated 2025).
# Like-named read-outs stand apart in the source and are kept apart here.
# Assays:
# Type in all cases: cell-based
# human TLR9 = molecular target: T1, human TLR9 (Homo sapiens, UniProt Q9NR96); assay: TLR9 inhibition reporter assay (HEK-Blue cells, secreted embryonic alkaline phosphatase reporter)
# T1 construct: host or cells: HEK-Blue cells (HEK293-derived reporter line)
# T1 sequence (Q9NR96 26-1032): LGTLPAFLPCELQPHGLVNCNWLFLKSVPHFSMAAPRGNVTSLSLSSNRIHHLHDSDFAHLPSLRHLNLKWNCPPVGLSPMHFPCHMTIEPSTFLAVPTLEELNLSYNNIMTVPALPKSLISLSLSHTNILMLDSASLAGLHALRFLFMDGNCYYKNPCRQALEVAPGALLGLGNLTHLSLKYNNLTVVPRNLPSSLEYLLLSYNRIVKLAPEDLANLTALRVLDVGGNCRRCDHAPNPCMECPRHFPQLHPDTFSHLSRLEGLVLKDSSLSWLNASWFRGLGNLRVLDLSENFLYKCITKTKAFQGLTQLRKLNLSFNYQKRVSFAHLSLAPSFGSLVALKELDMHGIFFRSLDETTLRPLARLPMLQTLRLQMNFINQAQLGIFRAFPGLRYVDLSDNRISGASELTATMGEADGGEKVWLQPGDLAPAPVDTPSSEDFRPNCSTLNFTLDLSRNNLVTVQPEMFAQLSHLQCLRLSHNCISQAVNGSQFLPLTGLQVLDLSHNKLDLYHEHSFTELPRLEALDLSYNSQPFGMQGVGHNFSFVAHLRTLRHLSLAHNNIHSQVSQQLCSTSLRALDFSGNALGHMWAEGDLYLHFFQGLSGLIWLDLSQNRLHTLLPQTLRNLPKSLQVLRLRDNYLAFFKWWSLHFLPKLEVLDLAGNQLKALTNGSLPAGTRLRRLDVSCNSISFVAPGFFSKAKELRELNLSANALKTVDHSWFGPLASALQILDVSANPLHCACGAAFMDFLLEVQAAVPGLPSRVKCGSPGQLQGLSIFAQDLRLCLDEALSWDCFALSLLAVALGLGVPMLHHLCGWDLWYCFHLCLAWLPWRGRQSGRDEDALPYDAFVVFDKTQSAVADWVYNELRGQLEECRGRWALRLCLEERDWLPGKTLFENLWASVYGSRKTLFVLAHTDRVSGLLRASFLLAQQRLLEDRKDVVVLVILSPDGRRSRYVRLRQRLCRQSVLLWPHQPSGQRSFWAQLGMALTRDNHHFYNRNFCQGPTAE
# Procedure, shortened: (§1)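 Cells seeded at 15000 (TLR7), 20,000 (TLR8) or 25,000 (TLR9) per well; compound 0.05 nM–50 μM, 30 min RT pre-incubation. Agonists: gardiquimod 7.5 μM, R848 15.9 μM, ODN2006 5 nM respectively. 22 h, 37 °C; SEAP via HEK-Blue Detection; % inhibition vs agonist+DMSO and known-inhibitor wells.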
# human TLR7 = molecular target: T2, human TLR7 (Homo sapiens, UniProt Q9NYK1); assay: TLR7 inhibition reporter assay (HEK-Blue cells, secreted embryonic alkaline phosphatase reporter); details: HEK-Blue cells overexpressing human TLR7, stimulated with gardiquimod 7.5 μM; read-out: TLR 7 IC50
# T2 construct: host or cells: HEK-Blue cells (HEK293-derived reporter line)
# T2 sequence (Q9NYK1 27-1049): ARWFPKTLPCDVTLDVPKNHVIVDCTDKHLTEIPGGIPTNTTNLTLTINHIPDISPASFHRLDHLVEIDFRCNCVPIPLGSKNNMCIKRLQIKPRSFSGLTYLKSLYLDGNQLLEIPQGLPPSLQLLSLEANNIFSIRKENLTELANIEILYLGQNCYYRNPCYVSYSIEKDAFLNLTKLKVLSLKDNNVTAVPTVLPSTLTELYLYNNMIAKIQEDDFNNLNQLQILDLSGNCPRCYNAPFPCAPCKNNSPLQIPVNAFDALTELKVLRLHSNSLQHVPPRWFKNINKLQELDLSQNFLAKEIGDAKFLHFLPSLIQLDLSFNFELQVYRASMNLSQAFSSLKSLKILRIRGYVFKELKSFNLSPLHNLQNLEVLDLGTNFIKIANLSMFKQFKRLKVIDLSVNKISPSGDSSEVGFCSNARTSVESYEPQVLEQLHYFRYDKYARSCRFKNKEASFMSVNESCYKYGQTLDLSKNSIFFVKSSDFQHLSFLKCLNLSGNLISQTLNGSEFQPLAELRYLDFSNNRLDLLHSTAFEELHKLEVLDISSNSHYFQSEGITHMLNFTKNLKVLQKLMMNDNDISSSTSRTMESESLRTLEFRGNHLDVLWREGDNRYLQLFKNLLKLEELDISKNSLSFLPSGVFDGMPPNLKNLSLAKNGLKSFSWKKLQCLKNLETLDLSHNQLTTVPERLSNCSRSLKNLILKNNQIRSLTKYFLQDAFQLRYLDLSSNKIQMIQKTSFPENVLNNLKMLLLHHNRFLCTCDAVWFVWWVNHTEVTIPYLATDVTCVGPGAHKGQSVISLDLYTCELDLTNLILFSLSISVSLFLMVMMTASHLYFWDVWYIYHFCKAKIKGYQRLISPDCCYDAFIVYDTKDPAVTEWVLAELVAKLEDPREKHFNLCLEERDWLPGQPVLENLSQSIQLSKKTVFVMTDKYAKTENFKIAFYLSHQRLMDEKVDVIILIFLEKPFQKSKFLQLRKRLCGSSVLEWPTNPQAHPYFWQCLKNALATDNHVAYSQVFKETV
# Procedure, shortened: as §1
# human TLR8 = molecular target: T3, human TLR8 (Homo sapiens, UniProt Q9NR97); assay: TLR8 inhibition reporter assay (HEK-Blue cells, secreted embryonic alkaline phosphatase reporter); details: HEK-Blue cells overexpressing human TLR8, stimulated with R848 15.9 μM; read-out: TLR 8 IC50
# T3 construct: host or cells: HEK-Blue cells (HEK293-derived reporter line)
# T3 sequence (Q9NR97 27-1041): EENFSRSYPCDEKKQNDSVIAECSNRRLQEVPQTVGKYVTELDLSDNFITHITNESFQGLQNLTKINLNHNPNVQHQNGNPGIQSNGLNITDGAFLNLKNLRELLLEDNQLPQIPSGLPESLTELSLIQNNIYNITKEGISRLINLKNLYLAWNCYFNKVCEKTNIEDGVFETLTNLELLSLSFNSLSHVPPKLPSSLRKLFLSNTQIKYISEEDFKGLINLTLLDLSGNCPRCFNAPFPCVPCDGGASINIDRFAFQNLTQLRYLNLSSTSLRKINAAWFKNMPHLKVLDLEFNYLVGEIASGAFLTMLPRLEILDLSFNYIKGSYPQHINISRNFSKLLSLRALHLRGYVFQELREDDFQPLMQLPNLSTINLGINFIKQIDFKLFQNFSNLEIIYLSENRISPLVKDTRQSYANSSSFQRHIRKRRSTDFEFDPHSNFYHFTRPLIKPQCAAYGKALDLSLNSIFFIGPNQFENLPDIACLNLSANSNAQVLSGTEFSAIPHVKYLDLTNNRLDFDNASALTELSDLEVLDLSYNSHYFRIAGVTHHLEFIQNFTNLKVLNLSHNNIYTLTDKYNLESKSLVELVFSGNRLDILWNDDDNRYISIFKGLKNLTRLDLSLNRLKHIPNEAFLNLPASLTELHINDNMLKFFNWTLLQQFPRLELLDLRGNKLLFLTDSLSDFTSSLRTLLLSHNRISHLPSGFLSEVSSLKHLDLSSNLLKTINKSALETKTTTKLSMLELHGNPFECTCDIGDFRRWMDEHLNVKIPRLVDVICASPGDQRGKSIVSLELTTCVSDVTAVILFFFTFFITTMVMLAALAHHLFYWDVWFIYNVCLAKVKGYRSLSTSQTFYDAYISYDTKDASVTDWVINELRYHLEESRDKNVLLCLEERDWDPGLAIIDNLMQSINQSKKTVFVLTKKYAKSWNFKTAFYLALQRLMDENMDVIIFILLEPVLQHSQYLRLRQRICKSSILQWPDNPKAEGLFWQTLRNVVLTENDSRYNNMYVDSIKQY
# Procedure, shortened: as §1
# [1] = HEK-Blue cells overexpressing human TLR9, stimulated with ODN2006 5 nM, read-out: TLR 9 IC50
# [2] = HEK-Blue human TLR9 reporter cells
# [3] = HEK-Blue cells overexpressing human TLR9, stimulated with ODN2006 5 nM, 22 hour incubation, reporter readout
SMILES,IC50 (human TLR9),IC50 (human TLR9; [1]),IC50 (human TLR7),IC50 (human TLR8),IC50 (human TLR9; [2]),IC50 (human TLR9; [3])
"CC(C)CN1CCCC(N2CCC(c3ccc4nc(-c5ccc(S(C)(=O)=O)cc5)n(C)c4c3F)CC2)CC1 (centres unmarked) [Example 311, 7-fluoro-6-(1-(1-isobutylazepan-4-yl)piperidin-4-yl)-1-methyl-2-(4-(methylsulfonyl)phenyl)-1H-benzo[d]imidazole]",,72 nM,> 50000 nM,> 50000 nM,72 nM,
"COc1ccc(-c2nc3ccc(C4CCN(C5CCN(C6CC6)CC5)CC4)cc3n2C)cc1OC [Example 27, 6-(1′-cyclopropyl-[1,4′-bipiperidin]-4-yl)-2-(3,4-dimethoxyphenyl)-1-methyl-1H-benzo[d]imidazole]",,106 nM,2400 nM,> 50000 nM,,110 nM
"Cn1c(-c2ccc(S(C)(=O)=O)cc2)nc2c(F)c(C3CCN(C4CC5CCC(C4)N5C4COC4)CC3)ccc21 (centres unmarked) [Example 196, 4-fluoro-1-methyl-2-(4-(methylsulfonyl)phenyl)-5-(1-(8-(oxetan-3-yl)-8-azabicyclo[3.2.1]octan-3-yl)piperidin-4-yl)-1H-benzo[d]imidazole]",580 nM,578 nM,> 50000 nM,> 50000 nM,,
"Cn1c(-c2ccc(S(C)(=O)=O)cc2)nc2cc(C3CCN(C4CC5CCC(C4)N5C4CCOCC4)CC3)cc(F)c21 (centres unmarked) [Example 211, 7-fluoro-1-methyl-2-(4-(methylsulfonyl)phenyl)-5-(1-(8-(tetrahydro-2H-pyran-4-yl)-8-azabicyclo[3.2.1]octan-3-yl)piperidin-4-yl)-1H-benzo[d]imidazole]",270 nM,165 nM,> 50000 nM,> 50000 nM,,
"CCOP(=O)(OCC)c1ccc(-c2nc3c(C)cc(C4CCN(C5CCN(CC(C)C)CC5)CC4)cc3n2C)cc1 [Example 421, diethyl(4-(6-(1′-isobutyl-[1,4′-bipiperidin]-4-yl)-1,4-dimethyl-1H-benzo[d]imidazol-2-yl)phenyl)phosphonate]",,139 nM,700 nM,> 50000 nM,,140 nM
"Cn1c(-c2ccc(S(C)(=O)=O)cc2)nc2ccc(C3CCN(C4CC5CCC(C4)N5CC4CC4)CC3)c(F)c21 (centres unmarked) [Example 268, 6-(1-(8-(cyclopropylmethyl)-8-azabicyclo[3.2.1]octan-3-yl)piperidin-4-yl)-7-fluoro-1-methyl-2-(4-(methylsulfonyl)phenyl)-1H-benzo[d]imidazole]",60 nM,60 nM,27600 nM,> 50000 nM,,

# Further molecules by falling IC50 (human TLR9; [1]), results first:
IC50 (human TLR9),IC50 (human TLR9; [1]),IC50 (human TLR7),IC50 (human TLR8),IC50 (human TLR9; [2]),IC50 (human TLR9; [3]),SMILES
640 nM,641 nM,> 50000 nM,> 50000 nM,,,"CS(=O)(=O)c1ccc(-c2nc3ccc(C4CCN(C5CCN(C6COC6)CC5)CC4)c(F)c3[nH]2)cc1 [Example 181, 7-fluoro-2-(4-(methylsulfonyl)phenyl)-6-(1′-(oxetan-3-yl)-[1,4′-bipiperidin]-4-yl)-1H-benzo[d]imidazole]"
440 nM,441 nM,> 50000 nM,> 50000 nM,,,"COCCN1CCC(N2CCC(c3ccc4c(nc(-c5ccc(S(C)(=O)=O)cc5)n4C)c3F)CC2)CC1 [Example 188, 4-fluoro-5-(1′-(2-methoxyethyl)-[1,4′-bipiperidin]-4-yl)-1-methyl-2-(4-(methylsulfonyl)phenyl)-1H-benzo[d]imidazole]"
,147 nM,21700 nM,> 50000 nM,150 nM,,"Cn1c(-c2ccc(S(C)(=O)=O)cc2)nc2c(F)cc(C3CCN(C4CC5CCC(C4)N5C4CCC4)CC3)cc21 (single isomer, unassigned) [Example 292, 6-(1-(8-cyclobutyl-8-azabicyclo[3.2.1]octan-3-yl)piperidin-4-yl)-4-fluoro-1-methyl-2-(4-(methylsulfonyl)phenyl)-1H-benzo[d]imidazole]"
,132 nM,32000 nM,> 50000 nM,,130 nM,"COc1ccc(-c2nc3ccc(C4CCN(C5CCN(CC(C)C)CC5)CC4)cc3n2C)cc1OC [Example 26, 2-(3,4-dimethoxyphenyl)-6-(1′-isobutyl-[1,4′-bipiperidin]-4-yl)-1-methyl-1H-benzo[d]imidazole]"
130 nM,125 nM,12900 nM,> 50000 nM,,,"Cn1c(-c2ccc(S(C)(=O)=O)cc2)nc2cc(C3CCN(C4CC5CCC(C4)N5CC4CC4)CC3)cc(F)c21 (centres unmarked) [Example 217, 5-(1-(8-(cyclopropylmethyl)-8-azabicyclo[3.2.1]octan-3-yl)piperidin-4-yl)-7-fluoro-1-methyl-2-(4-(methylsulfonyl)phenyl)-1H-benzo[d]imidazole]"
